Measured values from ChEMBL document CHEMBL5316298, “Discovery of Amphiphilic Xanthohumol Derivatives as Membrane-Targeting Antimicrobials against Methicillin-Resistant Staphylococcus aureus” (J Med Chem, 2023).
Calls of active or inactive are those of the source. The rule behind the calls is not given here.

How the values were obtained:
[1] = Toxicity in KM mouse assessed as swelling in skin at 40 to 80 mg/kg, sc administered into middle dorsum and measured after 24 hrs; assay type: organism-based; details: in vivo, dose 40-80 mg/kg
[2] = tested on: Cell membrane; test: Induction of membrane depolarization in methicillin-resistant Staphylococcus aureus 3 assessed as fold increase in fluorescence intensity at 8 to 16 ug/ml measured after 20 mins by DiSC35 dye-based fluorescence assay relative to control; assay type: subcellular; details: dose 8-16 µg/ml
[3] = Toxicity in KM mouse infected with methicillin-resistant Staphylococcus aureus 3 assessed as swelling of renal tubular epithelial cells with granular degeneration at 5 to 10 mg/kg administered into skin infection site measured after 24 hrs by H and E staining based analysis; assay type: organism-based; details: in vivo, topical_or_ocular, dose 5-10 mg/kg
[4] = tested on: Staphylococcus aureus; test: Antibacterial activity against methicillin-resistant Staphylococcus aureus 3 infected in KM mouse assessed as appearance of smoother dorsal skin at 10 mg/kg administered into skin infection site measured after 24 hrs; assay type: functional, organism-based
[5] = Toxicity in KM mouse assessed as pathological changes in liver at 20 mg/kg, sc administered into middle dorsum and measured after 24 hrs by H and E staining based analysis; assay type: organism-based; details: in vivo
[6] = tested on: Staphylococcus aureus; test: Antibacterial activity against methicillin-resistant Staphylococcus aureus clinical isolate 5 incubated for 16 to 18 hrs by CLSI-based microbroth dilution method; assay type: functional; details: time 16-18 hrs
[7] = Toxicity in KM mouse infected with methicillin-resistant Staphylococcus aureus 3 assessed as histopathological abnormalities in heart at 5 to 10 mg/kg administered into skin infection site measured after 24 hrs by H and E staining based analysis; assay type: organism-based; details: in vivo, topical_or_ocular, dose 5-10 mg/kg
[8] = tested on: Staphylococcus aureus; test: Antibacterial activity against methicillin-resistant Staphylococcus aureus 3 infected in KM mouse assessed as reduction in skin lesions/abscesses in subcutaneous tissue at 10 mg/kg administered into skin infection site measured after 24 hrs; assay type: functional, organism-based
[9] = tested on: Staphylococcus aureus; test: Induction of ROS production in methicillin-resistant Staphylococcus aureus 3 assessed as fold increase in intracellular ROS level at 64 ug/ml incubated for 40 mins by DCFH-DA dye based fluorescence analysis relative to control; assay type: functional
[10] = Toxicity in KM mouse infected with methicillin-resistant Staphylococcus aureus 3 assessed as histopathological abnormalities in lungs at 5 to 10 mg/kg administered into skin infection site measured after 24 hrs by H and E staining based analysis; assay type: organism-based; details: in vivo, topical_or_ocular, dose 5-10 mg/kg
[11] = tested on: Staphylococcus aureus; test: Antibacterial activity against methicillin-resistant Staphylococcus aureus clinical isolate 1 incubated for 16 to 18 hrs by CLSI-based microbroth dilution method; assay type: functional; details: time 16-18 hrs
[12] = Toxicity in KM mouse assessed as effect on urea level at 20 mg/kg, sc administered into middle dorsum and measured after 24 hrs by routine blood test; assay type: organism-based; details: in vivo
[13] = tested on: Staphylococcus aureus; test: Antibacterial activity against methicillin-resistant Staphylococcus aureus 3 infected in KM mouse assessed as reduction in abscesses inside the skin at 5 mg/kg administered into skin infection site measured after 24 hrs; assay type: functional, organism-based
[14] = tested on: Staphylococcus aureus; test: Bactericidal activity against methicillin-resistant Staphylococcus aureus 3 at 8 times MIC measured at 2 hrs by plate colony counting method; assay type: functional, organism-based
[15] = Toxicity in KM mouse assessed as effect on mean corpuscular volume at 20 mg/kg, sc administered into middle dorsum and measured after 24 hrs by routine blood test; assay type: organism-based; details: in vivo
[16] = Toxicity in KM mouse infected with methicillin-resistant Staphylococcus aureus 3 assessed as histopathological abnormalities in spleen at 5 to 10 mg/kg administered into skin infection site measured after 24 hrs by H and E staining based analysis; assay type: organism-based; details: in vivo, topical_or_ocular, dose 5-10 mg/kg
[17] = tested on: Cell membrane; test: Disruption of membrane integrity in methicillin-resistant Staphylococcus aureus 3 assessed as increase in intense blue fluorescence at 8 times MIC incubated for 4 hrs by DAPI/PI staining based laser confocal microscopic analysis; assay type: subcellular
[18] = tested on: Staphylococcus aureus; test: Bactericidal activity against Staphylococcus aureus ATCC 29213 at 8 times MIC measured at 1 hr by time kill assay; assay type: functional, organism-based
[19] = Toxicity in KM mouse assessed as mortality at 5 to 80 mg/kg, sc administered into middle dorsum and measured after 24 hrs; assay type: organism-based; details: in vivo, dose 5-80 mg/kg
[20] = tested on: Staphylococcus aureus; test: Anti-MRSA activity against methicillin-resistant Staphylococcus aureus 3 incubated for 16 to 18 hrs in presence of 64 ug/ml cardiolipin by checkerboard broth dilution method (reference value: 1 ug/ml); assay type: functional; details: time 16-18 hrs
[21] = tested on: Staphylococcus aureus; test: Antibacterial activity against methicillin-resistant Staphylococcus aureus clinical isolate 6 incubated for 16 to 18 hrs by CLSI-based microbroth dilution method; assay type: functional; details: time 16-18 hrs
[22] = tested on: Staphylococcus aureus; test: Antibacterial activity against methicillin-resistant Staphylococcus aureus clinical isolate 4 incubated for 16 to 18 hrs by CLSI-based microbroth dilution method; assay type: functional; details: time 16-18 hrs
[23] = Toxicity in KM mouse infected with methicillin-resistant Staphylococcus aureus 3 assessed as liver damage at 5 to 10 mg/kg administered into skin infection site measured after 24 hrs by H and E staining based analysis; assay type: organism-based; details: in vivo, topical_or_ocular, dose 5-10 mg/kg
[24] = tested on: Staphylococcus aureus; test: Anti-MRSA activity against methicillin-resistant Staphylococcus aureus 3 incubated for 16 to 18 hrs in presence of 64 ug/ml phosphatidylglycerol by checkerboard broth dilution method (reference value: 1 ug/ml); assay type: functional; details: time 16-18 hrs
[25] = Toxicity in KM mouse infected with methicillin-resistant Staphylococcus aureus 3 assessed as kidney damage at 5 to 10 mg/kg administered into skin infection site measured after 24 hrs by H and E staining based analysis; assay type: organism-based; details: in vivo, topical_or_ocular, dose 5-10 mg/kg
[26] = Toxicity in KM mouse assessed as pathological changes in lungs at 20 mg/kg, sc administered into middle dorsum and measured after 24 hrs by H and E staining based analysis; assay type: organism-based; details: in vivo
[27] = tested on: Cell membrane; test: Disruption of membrane integrity in methicillin-resistant Staphylococcus aureus 3 assessed as appearance of wrinkled cell surface at 16 ug/ml incubated for 240 mins by SEM analysis; assay type: subcellular; details: dose 16.0 µg/ml
[28] = tested on: Staphylococcus aureus; test: Antibacterial activity against methicillin-resistant Staphylococcus aureus 3 infected in KM mouse assessed as reduction in inflammatory cells in subcutaneous tissue at 5 to 10 mg/kg administered into skin infection site measured after 24 hrs by H and E staining based analysis; assay type: functional, organism-based; details: dose 5-10 mg/kg
[29] = Toxicity in KM mouse infected with methicillin-resistant Staphylococcus aureus 3 assessed as lung damage at 5 to 10 mg/kg administered into skin infection site measured after 24 hrs by H and E staining based analysis; assay type: organism-based; details: in vivo, topical_or_ocular, dose 5-10 mg/kg
[30] = Toxicity in KM mouse infected with methicillin-resistant Staphylococcus aureus 3 assessed as spleen damage at 5 to 10 mg/kg administered into skin infection site measured after 24 hrs by H and E staining based analysis; assay type: organism-based; details: in vivo, topical_or_ocular, dose 5-10 mg/kg
[31] = Toxicity in KM mouse assessed as pathological changes in heart at 20 mg/kg, sc administered into middle dorsum and measured after 24 hrs by H and E staining based analysis; assay type: organism-based; details: in vivo
[32] = tested on: Cell membrane; test: Disruption of membrane integrity in methicillin-resistant Staphylococcus aureus 3 assessed as increase in red fluorescence at 8 times MIC incubated for 4 hrs by DAPI/PI staining based laser confocal microscopic analysis; assay type: subcellular
[33] = tested on: Staphylococcus aureus; test: Antibacterial activity against methicillin-resistant Staphylococcus aureus clinical isolate 2 incubated for 16 to 18 hrs by CLSI-based microbroth dilution method; assay type: functional; details: time 16-18 hrs
[34] = tested on: Cell membrane; test: Disruption of membrane integrity in methicillin-resistant Staphylococcus aureus 3 assessed as increase in red fluorescence of PI incubated for 2 hrs by SYTO 9/PI staining based flow cytometry analysis; assay type: subcellular; details: dose 4-64 µg/ml

SMILES: CCCN(CCC)C(=O)C[N+](C)(C)CCCCOc1ccc(/C=C/C(=O)c2c(OC)cc3c(c2O)C=CC(C)(C)O3)cc1.[Br-]
- Activity [1]: Toxic
- fold change (FC) [2]: 6
- Activity [3]: Non-Toxic
- Activity [4]: Active
- Activity [5]: Non-Toxic
- MIC [6]: 1 µg/mL
- Activity [7]: Non-Toxic
- Activity [8]: Active
- fold change (FC) ([9]; dose 64 µg/ml): 7
- Activity ([9]; dose 64.0 µg/ml): Active
- Activity [10]: Non-Toxic
- MIC [11]: 2 µg/mL
- Activity [12]: Non-Toxic
- Activity [13]: inactive
- Activity [14]: Active
- Activity [15]: Non-Toxic
- Activity [16]: Non-Toxic
- Activity [17]: Active
- Activity [18]: Active
- Activity [19]: Non-Toxic
- MIC [20]: 32 µg/mL
- MIC [21]: 1 µg/mL
- MIC [22]: 2 µg/mL
- Activity [23]: Non-Toxic
- MIC [24]: 32 µg/mL
- Activity [25]: Non-Toxic
- Activity [26]: Non-Toxic
- Activity [27]: Active
- Activity [28]: Active
- Activity [29]: Non-Toxic
- Activity [30]: Non-Toxic
- Activity [31]: Non-Toxic
- Activity [32]: Active
- MIC [33]: 2 µg/mL
- Activity [34]: Dose-Dependent Effect
